The values that follow come from PubChem BioAssay (NCI).

Where “and” joins values, the source holds several entries; their conditions need not be identical. Identical values can stand only once.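 Method: 48-hour compound exposure of cells in 96-well plates, five concentrations, linear interpolation of endpoints. GI50 is the concentration that inhibits growth by half. TGI marks complete inhibition of growth.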

Holding throughout (assay): NCI tumour cell line growth inhibition, 48 h
In test [1] the test system is HT29 colon.
For test [2], the system named is HCT-15 colon.
Test [3] concerns SNB-19 CNS.
Test [4] concerns MOLT-4 leukemia.
In test [5] the test system is UO-31 renal.
The test system of test [6] is SW-620 colon.

For `Cn1cc(-c2ccc3ncc(-c4ccc(CC(=O)Nc5cc(C(C)(C)C)nn5C)cc4)cc3c2)cn1`, the GI50 in test [1] was 3.99 µM; in test [2], 0.793 µM; in test [3], 3.35 µM; in test [4], 0.706 µM; in test [5], 0.331 µM; in test [6] it was 1.67 µM. For the same molecule, the TGI is > 20 µM in test [1]; > 20 µM in test [2]; > 20 µM in test [3]; 3.25 µM in test [4]; 2.08 µM in test [5]; > 20 µM in test [6].

In the case of `N=C(N)n1cc(/C=N/N=C(N)N)cn1`, the TGI in test [1], in test [2], in test [3], in test [4], in test [5] and in test [6] was > 100 µM in each case.

`CCOC(=O)[C@@H](C)C[C@H](Cc1ccccc1)NC(=O)c1csc([C@@H](C[C@H](C(C)C)N(C)C(=O)CNC(=O)[C@H]2CCCCN2C)OC(C)=O)n1`: the GI50 is 0.467 µM in test [1]; 1.49 µM in test [2]; 0.758 µM in test [3]; 3.12 µM in test [4]; 5.07 µM in test [5]; 0.733 µM in test [6]. The TGI in test [1], in test [2], in test [3], in test [4], in test [5] and in test [6] was > 14.3 µM in each case.

Consider `CN(C)CCCOc1ccc(NC2=C(Cl)C(=O)C(Nc3ccc(OCCCN(C)C)cc3)=C(Cl)C2=O)cc1`, for which the GI50 in test [1] is 0.237 µM; in test [2] it was 0.411 µM; in test [3], 1.73 µM; in test [4], 0.325 µM; in test [5] it was 1.1 µM; in test [6] it was 0.297 µM. The TGI came out at 0.657 µM in test [1]; 0.958 µM in test [2]; 3.39 µM in test [3]; 2.38 µM in test [4]; 2.44 µM in test [5]; 0.809 µM in test [6].

With `COC(=O)[C@]12CC[C@@H](C)[C@H](C)[C@@H]1C1=CC[C@@H]3[C@@]4(C)C(C=O)=C[C@@](C)(COS(C)(=O)=O)C4=CC[C@@]3(C)[C@]1(C)CC2`, the GI50 was 0.144 µM in test [1]; 0.48 µM in test [3]; 0.244 µM in test [4]; 0.158 µM in test [5]; 0.209 µM in test [6]. In addition, the TGI was 0.37 µM in test [1]; 1.96 µM in test [3]; 1.05 µM in test [4]; 0.321 µM in test [5]; 0.484 µM in test [6].

On to `CN(C)CCNC(=O)Nc1ccc(N(C)c2ccnc(Nc3ccc(CS(C)(=O)=O)cc3)n2)cc1`, for which the GI50 in test [1], in test [2], in test [3], in test [4], in test [5] and in test [6] was > 25 µM throughout. Further, the TGI in test [1], in test [2], in test [3], in test [4], in test [5] and in test [6] was > 25 µM throughout.

For the molecule `OCCNc1nc2ccccc2c2[nH]c3ccccc3c12`, the GI50 was 0.321 µM in test [1]; 0.349 µM in test [2]; 0.345 µM in test [3]; 0.24 µM in test [4]; 0.297 µM in test [5]; 0.325 µM in test [6]. In addition, the TGI in test [1] turned out to be 2.71 µM; in test [2] it was 3.59 µM; in test [3] it was 3.57 µM; in test [4], 1.48 µM; in test [5], 1.37 µM; in test [6] it was 2.26 µM.

Take `[O-][n+]1c2cccc(O)c2[n+]([O-])c2cccc(O)c21`: the TGI in test [1], in test [2], in test [3], in test [4], in test [5] and in test [6] was > 100 µM each time.

In the case of `Nc1ncnc2c1c(-c1ccc(Oc3ccccc3)cc1)nn2CC1SSCC1O` (stereo not drawn), the GI50 was 1.27 µM in test [1]; 3.03 µM in test [2]; 5.51 µM in test [3]; 0.124 µM in test [4]; 1.22 µM in test [5]; 1.58 µM in test [6]. The TGI in test [1] is 6.36 µM; in test [2], 9.88 µM; in test [3], 13 µM; in test [4] it was 0.621 µM; in test [5] it was 5.88 µM; in test [6], 32.5 µM.

As to `S=C(Sc1ccc(Cl)cc1)Sc1ccc(Cl)cc1`, the GI50 was 1.95 µM in test [1]; 1.77 µM in test [2]; 3.8 µM in test [3]; 1.27 µM in test [4]; 1.31 µM in test [5]; 1.62 µM in test [6]. Moreover, the TGI worked out at 3.99 µM in test [1]; 4.71 µM in test [2]; 16 µM in test [3]; 4.53 µM in test [4]; 2.63 µM in test [5]; 3.01 µM in test [6].

For the molecule `Cc1cc(OC2OC(CO)C(O)C(O)C2O)ccc1O` (stereo not drawn), the TGI in test [1], in test [2], in test [3], in test [4], in test [5] and in test [6] was > 100 µM throughout.

`OCC1OC(OC2(CO)OC(CO)C(O)C2O)C(O)C(O)C1O` (stereo not drawn): the GI50 in test [1], in test [2], in test [3], in test [4], in test [5] and in test [6] was > 100 µM in each case. Moreover, the TGI in test [1], in test [2], in test [3], in test [4], in test [5] and in test [6] was > 100 µM in each case.

Turning to `C/C(=C/CCC(C)[C@@H]1CC[C@]2(C)C3=C(CC[C@@]12C)[C@@]1(C)CCC(=O)C(C)(C)[C@@H]1CC3)C(=O)O` (stereo partly drawn), the GI50 is 1.39 µM in test [1]; 0.974 µM in test [2]; 1.17 µM in test [3]; 1.46 µM in test [4]; 1.08 µM in test [5]; 1.39 µM in test [6]. Also, the TGI in test [1] was 3.04 µM; in test [2], 3 µM; in test [3], 2.68 µM; in test [4], 3.24 µM; in test [5] it was 2.44 µM; in test [6], 3.41 µM.

Take `CC(C)(C)O/N=C/c1cc(NC(=S)c2ccccc2)ccc1Cl`: the TGI in test [1] amounted to 29.2 µM; in test [2] it was 32.1 µM; in test [3], 63.8 µM; in test [4], 39.7 µM; in test [5] it was 31.6 µM; in test [6], 45.3 µM.

As to `C#COc1cccc(Nc2ncnc3cc(NC(=O)[C@@H](C)Cl)ccc23)c1`, the GI50 was 2.41 µM in test [1]; 3.98 µM in test [2]; 19.2 µM in test [3]; 4.29 µM in test [4]; 17.8 µM in test [5]; 3.95 µM in test [6]. Further, the TGI in test [1], in test [2], in test [3], in test [4], in test [5] and in test [6] was > 62.5 µM each time.

As to `O=[N+]([O-])/C=C/c1ccc2ccccc2c1`, the TGI in test [3] was found to be 5.13 µM; in test [5], 35.1 µM; in test [6], 3.99 µM.

`CCN(CC)CCNc1n[n+]([O-])c2cc([N+](=O)[O-])ccc2[n+]1[O-]`: the TGI is 2.41 µM and 2.22 µM and 1.71 µM in test [1]; 5.12 µM and 3.16 µM and 2.74 µM in test [2]; 6.34 µM and 6.43 µM and 5.58 µM in test [3]; 0.292 µM and 0.198 µM and 0.176 µM in test [4]; 15.3 µM and 10.8 µM and 10.9 µM in test [5]; 3.14 µM and 2.45 µM and 2.33 µM in test [6]. Besides, the GI50 in test [2] is 0.87 µM and 0.287 µM and 0.273 µM; in test [4], 0.0833 µM and 0.0383 µM and 0.0339 µM; in test [6], 0.737 µM and 0.304 µM and 0.238 µM.

Regarding `Nc1c(C(=O)Nc2ccccc2)sc2nc3c(cc12)C(=O)CCC3`, the GI50 in test [1] was 0.354 µM; in test [2], 0.407 µM; in test [3] it was 0.73 µM; in test [5] it was > 27.3 µM; in test [6] it was 0.333 µM. The TGI in test [2], in test [3], in test [4], in test [5] and in test [6] was > 100 µM throughout.

As for `N#CN1CC[C@H](C(=O)Nc2ncc(-c3ccccc3)s2)C1`, the GI50 in test [1] is 0.313 µM; in test [2], 0.312 µM; in test [3], 1.11 µM; in test [4], 0.309 µM; in test [5], 0.549 µM; in test [6] it was 0.313 µM. Also, the TGI in test [1] is 1.82 µM; in test [2], 3.65 µM; in test [3], 11.3 µM; in test [4], 2.04 µM; in test [5], 5.36 µM; in test [6], 14.4 µM.

Turning to `Cc1ccc2ccc3c4ccccc4ccc3c2c1`, the GI50 in test [1] is 22.9 µM; in test [2], 23.3 µM; in test [3], 26.7 µM; in test [4], 21.2 µM; in test [5], 23.3 µM; in test [6] it was 25.9 µM. For the same molecule, the TGI in test [1] was 77.7 µM; in test [2] it was 83.5 µM; in test [3], > 100 µM; in test [4], 57.6 µM; in test [5], > 100 µM; in test [6], > 100 µM.

As for `CCN(CC)CCCC(Nc1c2ccc(Cl)cc2nc2ccc(OC)cc12)c1ccc(Cl)cc1` (stereo not drawn), the GI50 is 0.45 µM in test [1]; 0.404 µM in test [2]; 0.761 µM in test [4]; 1.58 µM in test [5]; 1.37 µM in test [6]. Moreover, the TGI came to 1.75 µM in test [1]; 1.59 µM in test [2]; 2.3 µM in test [4]; 3.08 µM in test [5]; 2.99 µM in test [6].

Consider `C[C@]12CCc3nc(Nc4ccc(O)cc4)sc3C1=CC[C@@H]1[C@@H]2CC[C@]2(C)/C(=N/NC(N)=S)CC[C@@H]12`, for which the GI50 in test [2] is 1.24 µM; in test [3] it was 1.38 µM; in test [4] it was 0.47 µM; in test [5], 1.3 µM; in test [6] it was 1.29 µM. Besides, the TGI in test [2] worked out at 3.03 µM; in test [3], 2.94 µM; in test [4], 3.39 µM; in test [5] it was 2.57 µM; in test [6] it was 3.26 µM.

Take `COc1ccc([C@@]23Oc4cc(OC)cc(OC)c4[C@]2(O)[C@H](O)[C@H](C(=O)N(C)C)[C@H]3c2ccccc2)cc1`: the GI50 is 0.015 µM in test [2], 0.0113 µM in test [3] and 0.0214 µM in test [5]. In addition, the TGI in test [3] is 1.37 µM and 0.159 µM; in test [6], 1.02 µM and 0.26 µM and 0.244 µM.

On to `CCOC(=O)c1cn(C)c2c(OC)c3ccccc3c(OC)c2c1=O`, for which the GI50 is 64.3 µM in test [1]; 29.6 µM in test [2]; 36.6 µM in test [3]; 18.9 µM in test [4]; > 100 µM in test [5]. The TGI in test [1] was > 100 µM; in test [2], > 100 µM; in test [3] it was > 100 µM; in test [4], 51.7 µM; in test [5], > 100 µM.

For `O=C1c2cccc3c(N4CCOCC4)ccc(c23)C(=O)N1CCN1CCN(CCCCCN2CCN(CCN3C(=O)c4cccc5c(N6CCOCC6)ccc(c45)C3=O)CC2)CC1`, the GI50 in test [1] was 58 µM; in test [2] it was > 100 µM; in test [3], > 100 µM; in test [6], 70.8 µM. For the same molecule, the TGI in test [1], in test [2], in test [3] and in test [6] was > 100 µM in each case.

On to `CN(C)C1C(=O)C(C(N)=O)=C(O)C2(O)C(=O)C3=C(O)c4c(O)cccc4C(C)(O)C3CC12.[Cl][Sb]([Cl])[Cl]` (stereo not drawn), for which the GI50 is 3.79 µM in test [1]; 3.59 µM in test [2]; 3.91 µM in test [4]; 2.62 µM in test [5]; 4.01 µM in test [6]. Moreover, the TGI in test [1] amounted to 12.2 µM; in test [2] it was 16.1 µM; in test [4], 11 µM; in test [5], 16.1 µM; in test [6], 16.5 µM.

On to `COc1cc2c(c3c1c(=O)c1ccccc1n3C)C=C([N+](=O)[O-])C(C)(C)O2`, for which the TGI in test [1], in test [2], in test [3], in test [4] and in test [5] was > 100 µM each time.
